In article PMC9230573 (Frontiers in Pharmacology, 2022):
Where a SMILES comes first, the peptide text is derived from it. Bridges are numbered along the chain shown (N, C = ends).

Target: human CaV2.2 (α1B, β3, α2δ1) (Homo sapiens, UniProt Q00975)
Test: cell-based

human CaV2.2 (α1B, β3, α2δ1), sequence (Q00975 whole entry, looked up): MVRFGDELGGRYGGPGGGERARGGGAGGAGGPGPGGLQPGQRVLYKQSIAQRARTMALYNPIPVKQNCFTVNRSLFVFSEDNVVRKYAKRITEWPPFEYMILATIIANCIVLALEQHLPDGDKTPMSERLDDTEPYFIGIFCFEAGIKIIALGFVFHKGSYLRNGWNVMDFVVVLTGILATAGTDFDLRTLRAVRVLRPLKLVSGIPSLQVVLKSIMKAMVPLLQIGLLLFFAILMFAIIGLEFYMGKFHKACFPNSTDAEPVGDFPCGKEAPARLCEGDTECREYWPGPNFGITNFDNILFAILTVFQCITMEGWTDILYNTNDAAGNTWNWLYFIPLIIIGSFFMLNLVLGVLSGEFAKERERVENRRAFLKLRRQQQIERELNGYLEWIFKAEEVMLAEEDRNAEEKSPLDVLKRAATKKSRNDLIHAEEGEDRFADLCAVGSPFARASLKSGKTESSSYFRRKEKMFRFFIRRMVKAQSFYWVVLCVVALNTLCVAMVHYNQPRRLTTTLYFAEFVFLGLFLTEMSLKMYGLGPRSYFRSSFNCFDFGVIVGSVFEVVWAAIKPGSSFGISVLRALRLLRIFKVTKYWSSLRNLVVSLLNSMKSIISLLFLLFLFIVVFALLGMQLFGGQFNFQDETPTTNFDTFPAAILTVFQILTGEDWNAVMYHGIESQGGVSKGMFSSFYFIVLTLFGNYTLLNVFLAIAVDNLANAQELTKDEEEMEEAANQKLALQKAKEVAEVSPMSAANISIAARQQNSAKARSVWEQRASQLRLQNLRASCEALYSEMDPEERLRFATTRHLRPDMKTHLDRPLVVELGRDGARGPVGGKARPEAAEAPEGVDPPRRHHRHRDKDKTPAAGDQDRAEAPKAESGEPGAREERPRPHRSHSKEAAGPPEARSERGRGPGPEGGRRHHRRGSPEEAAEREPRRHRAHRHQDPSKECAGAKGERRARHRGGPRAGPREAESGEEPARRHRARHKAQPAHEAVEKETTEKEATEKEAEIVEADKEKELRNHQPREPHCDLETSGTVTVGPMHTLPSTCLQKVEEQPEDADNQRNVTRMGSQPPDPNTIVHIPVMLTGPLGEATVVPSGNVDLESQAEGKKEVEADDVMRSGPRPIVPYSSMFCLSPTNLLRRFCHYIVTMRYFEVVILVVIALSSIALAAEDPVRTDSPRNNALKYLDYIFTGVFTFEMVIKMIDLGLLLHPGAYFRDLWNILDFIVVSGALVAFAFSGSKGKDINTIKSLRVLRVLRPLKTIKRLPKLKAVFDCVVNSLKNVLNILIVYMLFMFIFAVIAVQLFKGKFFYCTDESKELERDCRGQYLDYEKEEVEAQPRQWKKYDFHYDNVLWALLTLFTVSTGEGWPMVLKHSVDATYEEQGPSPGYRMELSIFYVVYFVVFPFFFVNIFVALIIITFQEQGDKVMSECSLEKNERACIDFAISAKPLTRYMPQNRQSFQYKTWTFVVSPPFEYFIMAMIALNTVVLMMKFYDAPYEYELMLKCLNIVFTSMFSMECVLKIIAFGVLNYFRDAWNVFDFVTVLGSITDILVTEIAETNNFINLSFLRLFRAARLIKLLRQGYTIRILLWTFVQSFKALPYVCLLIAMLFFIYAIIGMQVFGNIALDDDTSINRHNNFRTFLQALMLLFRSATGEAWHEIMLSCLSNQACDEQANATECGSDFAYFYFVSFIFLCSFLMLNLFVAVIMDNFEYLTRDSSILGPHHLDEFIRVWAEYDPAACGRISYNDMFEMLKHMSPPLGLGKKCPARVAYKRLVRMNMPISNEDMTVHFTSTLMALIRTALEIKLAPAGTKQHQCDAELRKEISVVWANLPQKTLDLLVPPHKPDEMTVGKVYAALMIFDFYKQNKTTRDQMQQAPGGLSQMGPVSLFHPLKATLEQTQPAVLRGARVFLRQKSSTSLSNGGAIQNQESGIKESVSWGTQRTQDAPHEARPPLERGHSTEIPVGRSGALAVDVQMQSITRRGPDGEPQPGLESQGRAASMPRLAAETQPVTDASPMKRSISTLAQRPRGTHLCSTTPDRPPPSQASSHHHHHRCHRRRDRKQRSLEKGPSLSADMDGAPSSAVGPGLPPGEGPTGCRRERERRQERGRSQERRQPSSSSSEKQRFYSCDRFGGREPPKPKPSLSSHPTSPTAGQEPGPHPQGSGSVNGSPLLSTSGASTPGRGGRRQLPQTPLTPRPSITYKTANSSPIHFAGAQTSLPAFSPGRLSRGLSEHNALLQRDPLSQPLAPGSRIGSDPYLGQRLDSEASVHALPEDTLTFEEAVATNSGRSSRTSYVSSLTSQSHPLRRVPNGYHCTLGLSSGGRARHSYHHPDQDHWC

CC[C@H](C)[C@@H]1NC(=O)[C@@H]2CCCN2C(=O)[C@@H]2CSSC[C@H](NC(=O)[C@@H](N)CC(N)=O)C(=O)N[C@@H](CSSC[C@@H](C(N)=O)NC(=O)[C@H](CC(N)=O)NC(=O)[C@H](Cc3ccccc3)NC(=O)[C@H](CCCNC(=N)N)NC(=O)[C@H](CO)NC(=O)[C@H](Cc3ccc(O)cc3)NC(=O)[C@H](CC(=O)O)NC1=O)C(=O)N[C@@H](CCSC)C(=O)N[C@@H](Cc1ccccc1)C(=O)N[C@@H](Cc1c[nH]cn1)C(=O)N[C@@H]([C@@H](C)O)C(=O)N2 [Vt1.27] (H-NCCMFHTCPIDYSRFNC-NH2; disulfide 2-8, 3-17)
IC50: 398 nM | half-maximum inactivation (V0.5, inact): −69.0 ± 1.0 mV | shift of half-maximum inactivation (V0.5, inact): 3 mV | τoff (off kinetics of inhibition): 2.7 ± 0.15 s | τon (on kinetics of inhibition): 4.5 ± 0.48 s
